US9115153B2, “Aza metal complexes” (Canon Kabushiki Kaisha, priority 2007, dated 2015)

How the values were obtained:
[1] = XAFS measurement and analysis (coordination number); format: physicochemical; details: for comparison
Description: The XAFS analysis of the complex (R)-11 was performed at Spring-8.
Specifically, the number of the coordinated water molecules was estimated by removing background from XAFS spectra and performing fitting using Fourier transformation or Fourier inverse transformation.
Further, the XAFS spectra were obtained by a transmission method using an ion chamber for a pellet (in a powder state) of the complex ((R)-11) and a fluorescence method using a multi-element semiconductor detector for an aqueous solution of the complex ((R)-11), respectively.
When fitting was performed without fixing the proximal coordination number to 9, the following results were obtained. In a powder state, the coordination number of O was 6.99 and the distance between atoms of Gd and O was 2.421 Å, and in an aqueous solution (3 mM) the coordination number of O was 9.77 and the distance between atoms of Gd and O was 2.430 Å.

[2] = aqueous solutions of 2.0, 1.0, 0.5 and 0.25 mM, saturation recovery spin echo, 24° C.
[3] = T1 relaxation time measurement by 500 MHz NMR in FBS solution; format: physicochemical; details: FBS 80%, heavy water 10%, H2O 10%; otherwise as Example 4 / Comparative Example 1 (500 MHz NMR)
Description: The T1 time was measured in the same manner as in Example 4 except that the NMR measurement sample was changed to an FBS (fetal bovine serum) solution of the complex (R)-11 (FBS concentration: 80%, heavy water concentration: 10%, H2O concentration: 10%).
The T1 time was measured in the same manner as in Comparative Example 1 except that the NMR measurement sample was changed to an FBS (fetal bovine serum) solution of GdCl3 or Gd (DTPA) (FBS concentration: 80%, heavy water concentration: 10%, H2O concentration: 10%).

[4] = T1 relaxation time measurement by 7T MRI (inversion recovery FISP); format: physicochemical; details: 1.3 mM in ultrapure water, 24° C.
Description: The T1 relaxation time measurement by MRI was performed using a 7T MRI apparatus (BioSpec 70/20 manufactured Bruker Biospin K.K.). The T1 relaxation time was measured under the measurement conditions of TR/TE 3/1.5 ms, FOV=8*4 cm, matrix=128*128, NA=2 and a temperature of 24° C. using an inversion recovery FISP method. Aqueous solutions of six different concentrations (1.3 mM, 0.65 mM, 0.325 mM, 0.13 mM, 0.026 mM and 0.013 mM) were prepared by dissolving complex (R)-11 in ultrapure water, and each of the aqueous solutions was placed into an Eppendorf tube and used directly as a measurement sample.
The T1 relaxation time was measured in the same manner as in Example 5. A GdCl3 aqueous solution was prepared by dissolving commercially available GdCl3.6H2O in ultrapure water so that the concentration was adjusted to 1.3 mM, and Gd (DTPA) aqueous solutions were prepared by diluting a commercially available Gd (DTPA) aqueous solution (630 mM) with ultrapure water so that the concentration was adjusted to 2.0, 1.3, 1.0, 0.5 and 0.25 mM, respectively. Each of the aqueous solutions was placed into an Eppendorf tube and used directly as a measurement sample.

[5] = T1 relaxation time measurement by 500 MHz NMR (aqueous solution); format: physicochemical; details: 0.13 mM aqueous solution, 10% heavy water, 27° C., inversion recovery
Description: The T1 relaxation time measurement was performed using a broadband probe on a 500 MHz NMR apparatus (Avance 500 manufactured by Bruker Biospin K.K.). The T1 relaxation times were measured at 27° C. using an inversion recovery method.
First, a Gd triamine 2nd G-12-ol-dendrimer complex (R)-11 was dissolved in 1 ml of ultrapure water to prepare an aqueous solution in which the concentration of complex (R)-11 was 24.05 mM. In addition, the concentration of complex (R)-11 was determined from the Gd concentration by inductive coupled plasma emission spectrometry (ICP emission spectrometry). Next, the aqueous solution was diluted with ultrapure water and heavy water so that the concentration of complex (R)-11 was 0.13 mM and the concentration of heavy water was 10%, and the resulting aqueous solution was used as an NMR measurement sample. […] The data shown in FIG. 1 clarified that the T1 time of water of the complex (R)-11 aqueous solution was 429 ms.
The T1 relaxation time was measured in the same manner as in Example 4. […] The T1 relaxation time of water for the Gd (DTPA) aqueous solution sample determined from the data shown in FIG. 2 was 1333 ms, which is considerably longer than the T1 relaxation time of complex (R)-11.

SMILES | coordination number of water molecule [1] | T1 relaxation ability r1 [2] [L/mmol/s] | T1 time of water for FBS solution [3] [ms] | T1 [4] [ms] | T1 relaxation time of water [5] [ms]
O=C([O-])CN1CCN(CC(=O)[O-])CCN(CC(=O)O)CCN(CC(=O)[O-])CC1.[Gd+3] [Gd (DOTA), reference compound] | 1 |  |  |  | 
O=C([O-])CN(CCN(CC(=O)[O-])CC(=O)O)CCN(CC(=O)[O-])CC(=O)O.[Gd+3] [Gd (DTPA)] | 1 | 4.661 | 1429 | 205.653 | 1333
[Cl][Gd]([Cl])[Cl] [GdCl3] |  |  | 1708 | 58.991 | 712
